In PMC3489664, “Sigma-1 Receptor Agonists Directly Inhibit NaV1.2/1.4 Channels” (PLoS ONE, 2012):

What was measured:
Type in all cases: cell-based
NaV1.2 [1] = molecular target: T1, NaV1.2 (Rattus norvegicus, UniProt P04775); experiment: whole-cell patch clamp in transfected HEK293T cells
T1 construct: gene Scn2a; rat brain type IIA Na+ channel clone

NaV1.4 [2] = molecular target: T2, NaV1.4 (Rattus norvegicus, UniProt P15390); experiment: whole-cell patch clamp in transfected HEK293T and COS-7 cells, […]
T2 construct: gene Scn4a; rat NaV1.4 (NM013178) in pEGFP-N1

NaV1.4 [3] = molecular target: T3, NaV1.4 (Rattus norvegicus, UniProt P15390, Y1586A); experiment: whole-cell patch clamp in transfected HEK293T cells, […]; details: HEK-293T
T3 construct: gene Scn4a; rat NaV1.4 (NM013178)

NaV1.2 [4] = molecular target: T4, NaV1.2 (Rattus norvegicus, UniProt P04775, F1764A); experiment: as above; details: HEK-293T
T4 construct: gene Scn2a; rat brain type IIA Na+ channel clone

NaV1.2 [5] = molecular target: T5, NaV1.2 (Rattus norvegicus, UniProt P04775, Y1771A); experiment: as above; details: HEK-293T
T5 construct: gene Scn2a; rat brain type IIA Na+ channel clone

NaV1.4 [6] = molecular target: T6, NaV1.4 (Rattus norvegicus, UniProt P15390, F1579A); experiment: as above; details: HEK-293T
T6 construct: gene Scn4a; rat NaV1.4 (NM013178)

NaV1.2 [7] = molecular target: T1, NaV1.2; experiment: whole-cell patch clamp in transfected HEK293T and COS-7 cells, […]
NaV1.2 [8] = molecular target: T1, NaV1.2; experiment: whole-cell patch clamp in transfected HEK293T cells, […]; details: HEK-293T

T1 sequence (P04775 whole entry): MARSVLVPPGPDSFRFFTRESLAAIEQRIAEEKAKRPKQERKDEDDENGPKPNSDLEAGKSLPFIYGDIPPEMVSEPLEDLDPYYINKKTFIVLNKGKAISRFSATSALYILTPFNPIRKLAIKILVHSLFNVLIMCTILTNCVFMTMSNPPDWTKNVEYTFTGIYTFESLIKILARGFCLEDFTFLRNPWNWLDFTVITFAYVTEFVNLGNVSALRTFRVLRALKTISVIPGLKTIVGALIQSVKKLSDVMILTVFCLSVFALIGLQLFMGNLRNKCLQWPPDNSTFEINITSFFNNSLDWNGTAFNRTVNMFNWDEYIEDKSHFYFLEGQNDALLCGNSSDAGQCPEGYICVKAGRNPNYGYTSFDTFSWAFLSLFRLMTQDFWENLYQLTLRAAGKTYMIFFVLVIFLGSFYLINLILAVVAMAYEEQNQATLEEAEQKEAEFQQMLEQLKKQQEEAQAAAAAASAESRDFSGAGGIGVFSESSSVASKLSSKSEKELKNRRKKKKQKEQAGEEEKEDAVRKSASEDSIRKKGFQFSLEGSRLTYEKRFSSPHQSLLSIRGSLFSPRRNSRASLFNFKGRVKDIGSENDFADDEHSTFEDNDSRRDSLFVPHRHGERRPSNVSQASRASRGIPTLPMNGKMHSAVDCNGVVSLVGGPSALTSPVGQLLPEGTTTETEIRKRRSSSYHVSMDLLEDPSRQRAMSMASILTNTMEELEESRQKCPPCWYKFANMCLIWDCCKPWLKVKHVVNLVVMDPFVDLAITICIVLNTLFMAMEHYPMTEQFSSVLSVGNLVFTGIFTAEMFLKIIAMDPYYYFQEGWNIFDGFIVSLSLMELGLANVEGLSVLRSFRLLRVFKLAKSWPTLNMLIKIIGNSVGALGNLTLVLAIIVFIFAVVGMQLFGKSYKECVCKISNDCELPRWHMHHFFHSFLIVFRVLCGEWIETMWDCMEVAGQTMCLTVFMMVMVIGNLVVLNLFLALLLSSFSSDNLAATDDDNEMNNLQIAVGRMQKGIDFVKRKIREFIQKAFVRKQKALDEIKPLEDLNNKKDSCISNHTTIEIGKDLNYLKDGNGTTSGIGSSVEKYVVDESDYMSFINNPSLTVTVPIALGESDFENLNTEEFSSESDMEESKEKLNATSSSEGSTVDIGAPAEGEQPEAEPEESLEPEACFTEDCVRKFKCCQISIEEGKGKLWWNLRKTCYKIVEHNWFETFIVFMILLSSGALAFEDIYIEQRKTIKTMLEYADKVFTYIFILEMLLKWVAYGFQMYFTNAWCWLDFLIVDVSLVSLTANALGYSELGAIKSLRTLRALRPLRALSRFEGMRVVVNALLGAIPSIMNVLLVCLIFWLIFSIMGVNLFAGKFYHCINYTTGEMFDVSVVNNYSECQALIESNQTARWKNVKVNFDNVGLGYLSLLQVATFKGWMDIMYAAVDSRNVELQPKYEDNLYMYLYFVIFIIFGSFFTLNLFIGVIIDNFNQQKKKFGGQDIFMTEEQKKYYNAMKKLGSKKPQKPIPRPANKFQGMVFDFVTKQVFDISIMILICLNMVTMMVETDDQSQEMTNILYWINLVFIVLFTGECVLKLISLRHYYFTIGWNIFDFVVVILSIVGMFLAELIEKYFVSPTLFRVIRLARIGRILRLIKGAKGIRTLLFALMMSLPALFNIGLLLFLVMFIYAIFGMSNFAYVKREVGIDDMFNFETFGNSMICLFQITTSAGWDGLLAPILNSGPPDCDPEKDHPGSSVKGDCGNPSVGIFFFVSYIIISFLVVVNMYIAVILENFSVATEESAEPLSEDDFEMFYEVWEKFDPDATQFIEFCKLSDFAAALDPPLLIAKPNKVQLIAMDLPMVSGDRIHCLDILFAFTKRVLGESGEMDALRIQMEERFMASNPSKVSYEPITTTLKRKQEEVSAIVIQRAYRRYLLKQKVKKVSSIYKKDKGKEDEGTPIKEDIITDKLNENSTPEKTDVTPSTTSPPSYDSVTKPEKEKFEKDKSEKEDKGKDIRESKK
T3 sequence (P15390 whole entry Y1586A): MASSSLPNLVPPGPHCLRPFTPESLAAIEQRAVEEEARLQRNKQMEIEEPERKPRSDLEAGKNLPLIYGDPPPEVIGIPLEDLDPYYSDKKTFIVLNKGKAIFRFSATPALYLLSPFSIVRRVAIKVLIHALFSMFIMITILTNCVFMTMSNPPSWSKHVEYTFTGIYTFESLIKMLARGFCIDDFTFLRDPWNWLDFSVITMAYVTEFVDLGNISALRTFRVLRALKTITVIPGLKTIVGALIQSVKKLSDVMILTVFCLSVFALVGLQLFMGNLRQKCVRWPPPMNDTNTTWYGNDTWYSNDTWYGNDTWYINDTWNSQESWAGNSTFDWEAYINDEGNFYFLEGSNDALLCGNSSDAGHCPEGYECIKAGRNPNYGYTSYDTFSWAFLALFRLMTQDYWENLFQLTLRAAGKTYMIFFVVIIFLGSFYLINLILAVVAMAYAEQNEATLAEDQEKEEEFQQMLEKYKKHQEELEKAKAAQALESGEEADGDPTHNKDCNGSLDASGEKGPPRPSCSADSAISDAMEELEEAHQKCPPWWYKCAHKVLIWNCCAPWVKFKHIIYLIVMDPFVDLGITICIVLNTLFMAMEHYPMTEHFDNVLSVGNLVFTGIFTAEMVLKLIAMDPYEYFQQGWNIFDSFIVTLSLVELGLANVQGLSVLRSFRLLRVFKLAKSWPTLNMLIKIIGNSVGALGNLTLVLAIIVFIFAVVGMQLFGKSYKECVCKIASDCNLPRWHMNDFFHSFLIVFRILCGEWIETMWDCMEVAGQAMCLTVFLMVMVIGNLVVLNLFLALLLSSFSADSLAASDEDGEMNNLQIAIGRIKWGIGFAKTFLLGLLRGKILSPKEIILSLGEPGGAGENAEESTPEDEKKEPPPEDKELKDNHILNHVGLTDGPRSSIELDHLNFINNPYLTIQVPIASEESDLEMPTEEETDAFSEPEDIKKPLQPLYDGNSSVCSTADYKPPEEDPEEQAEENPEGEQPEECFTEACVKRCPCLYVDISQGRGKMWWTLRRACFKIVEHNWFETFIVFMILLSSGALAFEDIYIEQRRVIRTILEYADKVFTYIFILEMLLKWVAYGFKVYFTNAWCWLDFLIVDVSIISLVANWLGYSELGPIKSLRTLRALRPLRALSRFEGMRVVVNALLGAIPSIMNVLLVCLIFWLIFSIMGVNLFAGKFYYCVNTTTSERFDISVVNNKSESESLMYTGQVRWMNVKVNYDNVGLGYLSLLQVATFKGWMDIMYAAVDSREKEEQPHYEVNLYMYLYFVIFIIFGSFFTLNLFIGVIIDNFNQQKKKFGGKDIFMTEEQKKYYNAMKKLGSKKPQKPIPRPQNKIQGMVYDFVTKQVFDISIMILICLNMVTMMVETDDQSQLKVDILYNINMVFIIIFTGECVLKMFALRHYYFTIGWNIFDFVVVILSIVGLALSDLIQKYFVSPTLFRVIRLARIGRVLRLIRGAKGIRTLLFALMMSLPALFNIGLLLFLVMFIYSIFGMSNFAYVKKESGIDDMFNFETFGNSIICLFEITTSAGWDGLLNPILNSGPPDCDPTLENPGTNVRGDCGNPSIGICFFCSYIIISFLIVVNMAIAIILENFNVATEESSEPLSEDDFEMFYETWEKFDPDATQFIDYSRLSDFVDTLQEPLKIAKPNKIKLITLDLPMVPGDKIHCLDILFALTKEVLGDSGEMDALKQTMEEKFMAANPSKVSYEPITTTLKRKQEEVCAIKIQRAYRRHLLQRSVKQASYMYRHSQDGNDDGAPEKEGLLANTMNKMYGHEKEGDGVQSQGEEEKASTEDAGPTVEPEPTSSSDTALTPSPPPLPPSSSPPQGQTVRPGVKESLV
T4 sequence (P04775 whole entry F1764A): as the sequence (P04775 whole entry) above, with F1764A counted along it
T5 sequence (P04775 whole entry Y1771A): as the sequence (P04775 whole entry) above, with Y1771A counted along it
T2 sequence (P15390 whole entry): as the sequence (P15390 whole entry Y1586A) above, with A1586Y counted along it
T6 sequence (P15390 whole entry F1579A): as the sequence (P15390 whole entry Y1586A) above, with F1579A, A1586Y counted along it

C=CCN1CC[C@]2(C)c3cc(O)ccc3C[C@H]1[C@H]2C [(+)-SKF 10047]
IC50 (NaV1.2 [1]): 140 µM | inhibition at 100 µM (NaV1.4 [2]): 51.5 ± 2.5% | inhibition at 100 µM (NaV1.4 [3]): 49.3 ± 0.5% | inhibition at 100 µM (NaV1.2 [4]): 25.9 ± 1.6% | inhibition at 100 µM (NaV1.2 [5]): 45.2 ± 1.3% | inhibition at 100 µM (NaV1.4 [6]): 23 ± 1.7%

COc1ccc2c(c1)[C@]13CCCC[C@@H]1[C@H](C2)N(C)CC3 [Dextromethorphan]
inhibition at 100 µM (NaV1.2 [7]): 65.8 ± 2%

Cc1ccccc1NC(=N)Nc1ccccc1C [1,3-di-o-tolyl-guanidine]
inhibition at 100 µM (NaV1.2 [8]): 69 ± 2.5%
